According to patent US20220378791A1, “JAK1 INHIBITORS FOR THE TREATMENT OF MYELODYSPLASTIC SYNDROMES” (Incyte Corporation, priority 2014, published 2022):

What was measured:
[1] = biological target: T1, human JAK1 (a.a. 837-1142) (Homo sapiens, UniProt P23458); experiment: In vitro JAK kinase assay (HTRF), JAK1; format: biochemical; conditions: 1 mM ATP
T1 construct: human JAK1 (a.a. 837-1142); His tag (N); made in house; host or cells: insect cells (baculovirus)
Protocol: Compounds herein were tested for inhibitory activity of JAK targets according to the following in vitro assay described in Park et al., Analytical Biochemistry 1999, 269, 94-104. The catalytic domains of human JAK1 (a.a. 837-1142), JAK2 (a.a. 828-1132) and JAK3 (a.a. 781-1124) with an N-terminal His tag were expressed using baculovirus in insect cells and purified. The catalytic activity of JAK1, JAK2 or JAK3 was assayed by measuring the phosphorylation of a biotinylated peptide. The phosphorylated peptide was detected by homogenous time resolved fluorescence (HTRF). […] Reactions were carried out at room temperature for 1 hour and then stopped with 20 μL 45 mM EDTA, 300 nM SA-APC, 6 nM Eu-Py20 in assay buffer (Perkin Elmer, Boston, Mass.). Binding to the Europium labeled antibody took place for 40 minutes and HTRF signal was measured on a Fusion plate reader (Perkin Elmer, Boston, Mass.).

[2] = biological target: T2, human JAK2 (a.a. 828-1132) (Homo sapiens, UniProt O60674); experiment: In vitro JAK kinase assay (HTRF), JAK2; format: biochemical; conditions: IC50 ratio, selectivity for JAK1 over JAK2, 1 mM ATP
T2 construct: JAK2 (a.a. 828-1132); His tag (N); made in house; host or cells: insect cells (baculovirus)
T2 sequence (O60674 828-1132): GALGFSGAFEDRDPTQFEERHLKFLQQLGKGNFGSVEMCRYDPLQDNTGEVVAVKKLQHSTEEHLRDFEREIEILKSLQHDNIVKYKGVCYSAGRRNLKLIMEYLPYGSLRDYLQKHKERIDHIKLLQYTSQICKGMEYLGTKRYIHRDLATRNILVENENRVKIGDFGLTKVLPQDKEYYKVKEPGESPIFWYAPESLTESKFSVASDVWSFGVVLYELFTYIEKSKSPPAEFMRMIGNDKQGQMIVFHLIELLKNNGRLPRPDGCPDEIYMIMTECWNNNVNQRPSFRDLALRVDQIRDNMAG
Protocol: Compounds herein were tested for inhibitory activity of JAK targets according to the following in vitro assay described in Park et al., Analytical Biochemistry 1999, 269, 94-104. The catalytic domains of human JAK1 (a.a. 837-1142), JAK2 (a.a. 828-1132) and JAK3 (a.a. 781-1124) with an N-terminal His tag were expressed using baculovirus in insect cells and purified. The catalytic activity of JAK1, JAK2 or JAK3 was assayed by measuring the phosphorylation of a biotinylated peptide. The phosphorylated peptide was detected by homogenous time resolved fluorescence (HTRF). […] Reactions were carried out at room temperature for 1 hour and then stopped with 20 μL 45 mM EDTA, 300 nM SA-APC, 6 nM Eu-Py20 in assay buffer (Perkin Elmer, Boston, Mass.). Binding to the Europium labeled antibody took place for 40 minutes and HTRF signal was measured on a Fusion plate reader (Perkin Elmer, Boston, Mass.). See Table 2 for data for compounds of the examples as tested by the assay of Example A at 1 mM ATP.

MDS patients [3] = conditions: study of 14 MDS patients; cited from earlier work
MDS patients [4] = conditions: 83 patients enrolled, 51 completed 12 weeks of therapy; cited from earlier work

T1 sequence (P23458 849-1154): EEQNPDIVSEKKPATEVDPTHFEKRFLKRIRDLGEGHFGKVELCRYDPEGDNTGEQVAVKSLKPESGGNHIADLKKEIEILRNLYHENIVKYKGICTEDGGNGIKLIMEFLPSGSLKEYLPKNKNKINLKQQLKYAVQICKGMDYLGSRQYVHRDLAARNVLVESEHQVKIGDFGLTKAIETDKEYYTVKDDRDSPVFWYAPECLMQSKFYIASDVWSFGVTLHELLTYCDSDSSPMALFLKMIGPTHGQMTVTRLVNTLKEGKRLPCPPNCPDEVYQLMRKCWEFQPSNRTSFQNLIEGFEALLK

Molecule | IC50 [1] | JAK2/JAK1 [2] | other results
CCNCc1cc(O[C@H]2CC[C@@H](N3CC(CC#N)(n4cc(-c5ncnc6[nH]ccc56)cn4)C3)CC2)nc(C(F)(F)F)c1 [Example 17, {1-(cis-4-{[4-[(ethylamino)methyl]-6-(trifluoromethyl)pyridin-2-yl]oxy}cyclohexyl)-3-[4-(7H-pyrrolo[2,3-d]pyrimidin-4-yl)-1H-pyrazol-1-yl]azetidin-3-yl}acetonitrile] | < 0.01 µM | >10 | 
etanercept |  |  | erythroid hematologic improvement (MDS patients [3]): 25 % of patients; improvement in platelet counts and ANC (MDS patients [3]): 12.5 % of evaluable patients
N#CCC1(n2cc(-c3ncnc4[nH]ccc34)cn2)CN(C2CCN(C(=O)c3ccnc(C(F)(F)F)n3)CC2)C1 [Example 7, [3-[4-(7H-pyrrolo[2,3-d]pyrimidin-4-yl)-1H-pyrazol-1-yl]-1-(1-{[2-(trifluoromethyl)pyrimidin-4-yl]carbonyl}piperidin-4-yl)azetidin-3-yl]acetonitrile] | < 0.01 µM | >10 | 
O=C1CCC(N2C(=O)c3ccccc3C2=O)C(=O)N1 (centres unmarked) [thalidomide] |  |  | patients showed hematologic improvement (MDS patients [4]): 16 patients; previously transfusion-dependent patients becoming transfusion independent (MDS patients [4]): 10 patients
